Assay results reported in US5672715A, “Herbicidal substituted 3-aryl-pyrazoles” (Monsanto Company, priority 1995, dated 1997).
Values joined by “and” are separate entries in the source; they are usually repeats but may differ in a detail not shown here. Equal values may be shown once.

Key:
Assay type in all cases: in vivo
[1] = system: Barnyardgrass; assay: pre-emergence herbicide test; settings: Echinochloa crus-galli, pre-emergence, 0.25 lb/A; read-out: % plant inhibition
Method: (§1) Topsoil was placed in an aluminum pan and compacted to a depth of 1.3 to 1.6 cm from the top of the pan. On the top of the soil was placed a predetermined number of seeds of each of several monocotyledonous and dicotyledonous annual plant species and/or vegetative propagules of various perennial plant species. The pan was then level filled with a cover layer of topsoil to which was added a known amount of active ingredient either prior to or after application of the cover layer. The active ingredient was dissolved or suspended in an organic solvent, e.g., acetone, or water as carrier for application to the cover layer. The pans were moved to a greenhouse bench where they were thereafter watered from below as needed to give adequate moisture for germination and growth. In some cases, an initial overhead irrigation of 1/4 inch of water was applied immediately after treatment.
(§2) Approximately 14 days after seeding and treating, the pans were observed and the results (% inhibition) were recorded.
(§3) The tables below summarize the results of the pre-emergence herbicidal activity tests of compounds of this invention tested with warm season plants (Tables 2a-2d) and cool season plants (Tables 3a and 3b). The herbicidal rating shown in these tables is the percent inhibition of each plant species. The plant species usually regarded as weeds are identified in the tables by single letter headings and crop species identified by two letter headings both headings being above the columns in accordance with the following legend: […]

[2] = system: Bedstraw Catchweed; assay: pre-emergence herbicide test; settings: 0.25 lb/A; for inhibition at 280.212 g/ha: Galium aparine, pre-emergence, read-out: % plant inhibition
Method: as §1, §2, §3

[3] = system: Birdseye Speedwell; assay: pre-emergence herbicide test; settings: pre-emergence, 0.25 lb/A; read-out: % plant inhibition
Method: as §1, §2, §3

[4] = system: Blackgrass; assay: pre-emergence herbicide test; settings: Alopecurus myosuroides, pre-emergence, 0.25 lb/A; read-out: % plant inhibition
Method: as §1, §2, §3

[5] = system: Cocklebur; assay: pre-emergence herbicide test; settings: 0.25 lb/A
Method: as §1, §2, §3

[6] = system: Common Chickweed; assay: pre-emergence herbicide test; settings: pre-emergence, 0.25 lb/A; read-out: % plant inhibition
Method: as §1, §2, §3

[7] = system: Corn; assay: pre-emergence herbicide test; settings: 0.25 lb/A
Method: as §1, §2, §3

[8] = system: Downy Brome; assay: pre-emergence herbicide test; settings: 0.25 lb/A; for inhibition at 280.212 g/ha: Bromus tectorum, pre-emergence, read-out: % plant inhibition
Method: as §1, §2, §3

[9] = system: Giant Foxtail; assay: pre-emergence herbicide test; settings: 0.25 lb/A; for inhibition at 280.212 g/ha: Setaria faberi, pre-emergence, read-out: % plant inhibition
Method: as §1, §2, §3

[10] = system: Green Foxtail; assay: pre-emergence herbicide test; settings: Setaria viridis, pre-emergence; 0.25 lb/A; read-out: % plant inhibition
Method: as §1, §2, §3

[11] = system: Morning Glory; assay: pre-emergence herbicide test; settings: 0.25 lb/A
Method: as §1, §2, §3

[12] = system: Rape; assay: pre-emergence herbicide test; settings: 0.25 lb/A; for inhibition at 280.212 g/ha: pre-emergence, read-out: % plant inhibition
Method: as §1, §2, §3

[13] = system: Seedling Johnsongrass; assay: pre-emergence herbicide test; settings: Sorghum halepense, pre-emergence, 0.25 lb/A; read-out: % plant inhibition
Method: as §1, §2, §3

[14] = system: Velvetleaf; assay: pre-emergence herbicide test; settings: 0.25 lb/A; for inhibition at 280.212 g/ha: Abutilon theophrasti, pre-emergence, read-out: % plant inhibition
Method: as §1, §2, §3

[15] = system: Wheat; assay: pre-emergence herbicide test; settings: 0.25 lb/A
Method: as §1, §2, §3

[16] = system: Wild Oats; assay: pre-emergence herbicide test; settings: 0.25 lb/A; for inhibition at 280.212 g/ha: Avena fatua, pre-emergence, read-out: % plant inhibition
Method: as §1, §2, §3

[17] = system: Bedstraw Catchweed; assay: post-emergence herbicide test; settings: 0.25 lb/A
Excerpt: (§4) Topsoil was placed in aluminum pans having holes in the bottom and compacted to a depth of 1.3 to 1.6 cm from the top of the pan. A predetermined number of seeds of each of several dicotyledonous and monocotyledonous annual plant species and/or vegetative propagules for the perennial plant species were placed on the soil and pressed into the soil surface. The seeds and/or vegetative propagules were covered with soil and leveled. The pans were then placed on a bench in the greenhouse and watered either from overheard irrigation or by subirrigation as needed. After the plants reach the desired age (two to three weeks), each pan, is removed individually to a spraying chamber and sprayed by means of an atomizer, operating at a spray pressure of 170.3 kPa […] at the application rates noted. In the spray solution was an amount of an emulsifying agent mixture to give a spray solution or suspension which contains about 0.4% by volume of the emulsifier. The spray solution or suspension contained a sufficient amount of the candidate chemical in order to give application rates of the active ingredient corresponding to those shown in Tables 4 and 5, while applying a total amount of solution or suspension equivalent to 1870 L/Ha (200 gallons/acre). […] The post-emergent herbicidal activity shown in these tables is the percent inhibition of each plant species. Testing with warm season and cool season plants is shown in tables 4a-4d and […], respectively.

[18] = system: Birdseye Speedwell; assay: post-emergence herbicide test; settings: 0.25 lb/A
Excerpt: as §4

[19] = system: Corn; assay: post-emergence herbicide test; settings: 0.25 lb/A; for inhibition at 280.212 g/ha: Zea mays, post-emergence, read-out: % plant inhibition
Excerpt: as §4

[20] = system: Seedling Johnsongrass; assay: post-emergence herbicide test; settings: 0.25 lb/A; for inhibition at 280.212 g/ha: Sorghum halepense, post-emergence, read-out: % plant inhibition
Excerpt: as §4

[21] = system: Velvetleaf; assay: post-emergence herbicide test; settings: 0.25 lb/A; for inhibition at 280.212 g/ha: Abutilon theophrasti, post-emergence, read-out: % plant inhibition
Excerpt: as §4

[22] = system: Soybean; assay: pre-emergence herbicide test; settings: Glycine max, pre-emergence, 0.25 lb/A; read-out: % plant inhibition
Method: as §1, §2, §3

[23] = system: Barnyardgrass; assay: post-emergence herbicide test; settings: Echinochloa crus-galli, post-emergence, 0.25 lb/A; read-out: % plant inhibition
Excerpt: as §4

[24] = system: Blackgrass; assay: post-emergence herbicide test; settings: Alopecurus myosuroides, post-emergence, 0.25 lb/A; read-out: % plant inhibition
Excerpt: as §4

[25] = system: Cocklebur; assay: post-emergence herbicide test; settings: Xanthium strumarium, post-emergence, 0.25 lb/A; read-out: % plant inhibition
Excerpt: as §4

[26] = system: Common Chickweed; assay: post-emergence herbicide test; settings: post-emergence, 0.25 lb/A; read-out: % plant inhibition
Excerpt: as §4

[27] = system: Downy Brome; assay: post-emergence herbicide test; settings: Bromus tectorum, post-emergence, 0.25 lb/A; read-out: % plant inhibition
Excerpt: as §4

[28] = system: Giant Foxtail; assay: post-emergence herbicide test; settings: Setaria faberi, post-emergence, 0.25 lb/A; read-out: % plant inhibition
Excerpt: as §4

[29] = system: Green Foxtail; assay: post-emergence herbicide test; settings: Setaria viridis, post-emergence, 0.25 lb/A; read-out: % plant inhibition
Excerpt: as §4

[30] = system: Morning Glory; assay: post-emergence herbicide test; settings: Ipomoea, post-emergence, 0.25 lb/A; read-out: % plant inhibition
Excerpt: as §4

[31] = system: Rape; assay: post-emergence herbicide test; settings: post-emergence, 0.25 lb/A; read-out: % plant inhibition
Excerpt: as §4

[32] = system: Soybean; assay: post-emergence herbicide test; settings: Glycine max, post-emergence, 0.25 lb/A; read-out: % plant inhibition
Excerpt: as §4

[33] = system: Wheat; assay: post-emergence herbicide test; settings: Triticum aestivum, post-emergence, 0.25 lb/A; read-out: % plant inhibition
Excerpt: as §4

[34] = system: Wild Oats; assay: post-emergence herbicide test; settings: Avena fatua, post-emergence, 0.25 lb/A; read-out: % plant inhibition
Excerpt: as §4

## Cc1c(-c2cc(C(=O)OC(C)C)c(Cl)cc2F)nn(C)c1C(F)(F)F [Compound 8, 2-Chloro-5-[1,4-dimethyl-5-(trifluoromethyl)-1H-pyrazol-3-yl]-4-fluorobenzoic acid, 1-methylethyl ester]
[1]
  inhibition at 280.212 g/ha: 100%
[2]
  % plant inhibition: 100%
  inhibition at 280.212 g/ha: 90%
[3]
  inhibition at 280.212 g/ha: 100%
[4]
  inhibition at 280.212 g/ha: 100%
[5]
  % plant inhibition: 80% and 75% and 99% and 85%
[6]
  inhibition at 280.212 g/ha: 100%
[7]
  % plant inhibition: 85% and 90% and 70% and 100%
[8]
  % plant inhibition: 99%
  inhibition at 280.212 g/ha: 100%
[9]
  inhibition at 280.212 g/ha: 100%
[10]
  inhibition at 280.212 g/ha: 100%
[11]
  % plant inhibition: 100%
[12]
  % plant inhibition: 100% and 90%
  inhibition at 280.212 g/ha: 98%
[13]
  inhibition at 280.212 g/ha: 100%
[14]
  % plant inhibition: 100%
  inhibition at 280.212 g/ha: 98%
[15]
  % plant inhibition: 0%
[16]
  % plant inhibition: 100%
  inhibition at 280.212 g/ha: 95%
[17]
  % plant inhibition: 60% and 95%
[18]
  % plant inhibition: 55%
[19]
  % plant inhibition: 20%
  inhibition at 280.212 g/ha: 15%
[20]
  % plant inhibition: 90%
  inhibition at 280.212 g/ha: 70%
[21]
  % plant inhibition: 99%
  inhibition at 280.212 g/ha: 90%

## CCOC(=O)C(C)OC(=O)c1cc(-c2nn(C)c(C(F)(F)F)c2C)c(F)cc1Cl (stereo not shown) [Compound 20]
[2]
  inhibition at 280.212 g/ha: 100%
[3]
  inhibition at 280.212 g/ha: 100%
[4]
  inhibition at 280.212 g/ha: 70%
[5]; Xanthium strumarium, pre-emergence, read-out: % plant inhibition
  inhibition at 280.212 g/ha: 55%
[6]
  inhibition at 280.212 g/ha: 100%
[7]
  % plant inhibition: 10%
[7]; Zea mays, pre-emergence, read-out: % plant inhibition
  inhibition at 280.212 g/ha: 15%
[8]
  inhibition at 280.212 g/ha: 65%
[9]
  % plant inhibition: 80%
  inhibition at 280.212 g/ha: 98%
[10]
  inhibition at 280.212 g/ha: 100%
[11]
  % plant inhibition: 70%
[11]; Ipomoea, pre-emergence, read-out: % plant inhibition
  inhibition at 280.212 g/ha: 85%
[12]
  inhibition at 280.212 g/ha: 95%
[22]
  inhibition at 280.212 g/ha: 5%
[14]
  inhibition at 280.212 g/ha: 95%
[15]; Triticum aestivum, pre-emergence, read-out: % plant inhibition
  inhibition at 280.212 g/ha: 0%
[16]
  inhibition at 280.212 g/ha: 25%
[23]
  inhibition at 280.212 g/ha: 85%
[17]; Galium aparine, post-emergence, read-out: % plant inhibition
  inhibition at 280.212 g/ha: 95%
[18]; post-emergence, read-out: % plant inhibition
  inhibition at 280.212 g/ha: 100%
[24]
  inhibition at 280.212 g/ha: 35%
[25]
  inhibition at 280.212 g/ha: 90%
[26]
  inhibition at 280.212 g/ha: 98%
[19]
  inhibition at 280.212 g/ha: 8%
[27]
  inhibition at 280.212 g/ha: 40%
[28]
  inhibition at 280.212 g/ha: 75%
[29]
  inhibition at 280.212 g/ha: 25%
[30]
  inhibition at 280.212 g/ha: 98%
[31]
  inhibition at 280.212 g/ha: 25%
[20]
  inhibition at 280.212 g/ha: 80%
[32]
  inhibition at 280.212 g/ha: 35%
[21]
  inhibition at 280.212 g/ha: 100%
[33]
  inhibition at 280.212 g/ha: 22%
[34]
  inhibition at 280.212 g/ha: 45%
